Laboratory results as given in ChEMBL document CHEMBL6092201, “Discovery of cyanoguanidine derivatives as biased μ-opioid receptor agonists” (2024).
Calls of active or inactive are those of the source.

Assays:
Type in all cases: functional
[1] = target: Mu-type opioid receptor (Homo sapiens) (UniProt P35372); assay: Agonist activity at MOR (unknown origin) assessed as beta-arrestin2 recruitment at 0.1 uM incubated for 90 to 180 mins by chemiluminescence based microplate reader assay relative to control; details: time 90-180 min
Sequence of Mu-type opioid receptor (Homo sapiens) (P35372 whole entry): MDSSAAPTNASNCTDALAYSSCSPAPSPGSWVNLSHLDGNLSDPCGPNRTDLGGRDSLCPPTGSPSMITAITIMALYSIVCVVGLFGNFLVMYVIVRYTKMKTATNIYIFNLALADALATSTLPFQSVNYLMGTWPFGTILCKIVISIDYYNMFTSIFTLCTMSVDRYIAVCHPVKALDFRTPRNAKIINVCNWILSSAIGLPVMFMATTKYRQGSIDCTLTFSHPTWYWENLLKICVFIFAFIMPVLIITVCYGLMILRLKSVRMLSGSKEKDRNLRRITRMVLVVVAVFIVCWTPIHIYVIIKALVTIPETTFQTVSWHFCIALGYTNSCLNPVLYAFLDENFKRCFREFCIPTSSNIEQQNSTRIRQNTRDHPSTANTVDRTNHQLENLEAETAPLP

[2] = target: Mu-type opioid receptor (Homo sapiens) (UniProt P35372); assay: Agonist activity at MOR (unknown origin) assessed as cAMP accumulation at 0.5 nM relative to control
[3] = target: Mu-type opioid receptor (Homo sapiens) (UniProt P35372); assay: Agonist activity at MOR (unknown origin) assessed as cAMP accumulation at 50 nM relative to control
[4] = test system: Mus musculus; assay: Analgesic activity in Kunming mouse assessed as increase in pain threshold at 10 mg/kg, po (reference value: 0.13 +/- 5.20 sec)
[5] = target: Mu-type opioid receptor (Homo sapiens) (UniProt P35372); assay: Agonist activity at MOR (unknown origin) assessed as beta-arrestin2 recruitment at 1 uM incubated for 90 to 180 mins by chemiluminescence based microplate reader assay relative to control; details: time 90-180 min
[6] = target: Mu-type opioid receptor (Homo sapiens) (UniProt P35372); assay: Agonist activity at MOR (unknown origin) assessed as beta-arrestin2 recruitment at 10 uM incubated for 90 to 180 mins by chemiluminescence based microplate reader assay relative to control; details: time 90-180 min
[7] = target: Mu-type opioid receptor (Homo sapiens) (UniProt P35372); assay: Agonist activity at MOR (unknown origin) assessed as beta-arrestin2 recruitment at 50 uM incubated for 90 to 180 mins by chemiluminescence based microplate reader assay; details: time 90-180 min

COc1ccccc1N/C(=N\C#N)NC[C@H](Cc1ccccc1)N(C)C
Activity [1]: -0.8% | Activity [2]: 9.5% | Activity [3]: 36.9% | Time [4]: 7.34 s | Activity [5]: 2% | Activity [6]: 15.2% | Activity [7]: inactive

CN1CC[C@]23c4c5ccc(O)c4O[C@H]2[C@@H](O)C=C[C@H]3[C@H]1C5 [MORPHINE]
Time [4]: 22.79 s

CC(Cc1ccco1)N/C(=N\C#N)NC[C@H](Cc1ccccc1)N(C)C (stereo partly specified)
Activity [1]: -1.3% | Activity [2]: 9.5% | Activity [3]: 15.6% | Time [4]: 7.57 s | Activity [5]: -1% | Activity [6]: -0.8% | Activity [7]: inactive

CC(Cc1cc[nH]n1)N/C(=N\C#N)NC[C@H](Cc1ccccc1)N(C)C (stereo partly specified)
Activity [1]: -0.4% | Activity [2]: -2.5% | Activity [3]: -15.2% | Time [4]: 15.44 s | Activity [5]: -0.7% | Activity [6]: -0.6% | Activity [7]: inactive

COc1ccc(CN/C(=N\C#N)NC[C@H](Cc2ccc(O)cc2)N(C)C)cc1
Activity [1]: -1% | Activity [2]: 18.5% | Activity [3]: 19.8% | Time [4]: 12.41 s | Activity [5]: -0.8% | Activity [6]: -0.9% | Activity [7]: inactive

COc1ccccc1N/C(=N\C#N)NC[C@H](Cc1ccc(O)cc1)N(C)C
Activity [1]: -1.2% | Activity [2]: 25.5% | Activity [3]: 32.9% | Time [4]: 7.76 s | Activity [5]: -1% | Activity [6]: -1% | Activity [7]: inactive

CN(C)[C@H](CN/C(=N/C#N)NCCc1cccc(F)c1)Cc1ccccc1
Activity [1]: -0.7% | Activity [2]: 7.4% | Activity [3]: 14.4% | Time [4]: 8.86 s | Activity [5]: -0.3% | Activity [6]: 4.8% | Activity [7]: inactive

CC(Cc1c[nH]c2ccccc12)N/C(=N\C#N)NC[C@H](Cc1ccccc1)N(C)C (stereo partly specified)
Activity [1]: -0.9% | Activity [2]: 11.1% | Activity [3]: 17.7% | Time [4]: 11.63 s | Activity [5]: -0.9% | Activity [6]: -0.7% | Activity [7]: inactive

COc1cccc(CCN/C(=N\C#N)NC[C@H](Cc2ccccc2)N(C)C)c1
Activity [1]: -1% | Activity [2]: 3.3% | Activity [3]: 10.3% | Time [4]: 12.47 s | Activity [5]: -0.6% | Activity [6]: 23% | Activity [7]: inactive

CC(Cc1c[nH]cn1)N/C(=N\C#N)NC[C@H](Cc1ccccc1)N(C)C (stereo partly specified)
Activity [1]: -0.5% | Activity [2]: -14.4% | Activity [3]: 0.8% | Time [4]: 11.38 s | Activity [5]: -0.1% | Activity [6]: 2.2% | Activity [7]: inactive

CN(C)[C@H](CN/C(=N/C#N)NCCc1ccc(O)cc1)Cc1ccccc1
Activity [1]: -0.9% | Activity [2]: 13.2% | Activity [3]: 19.3% | Time [4]: 6.82 s | Activity [5]: -0.7% | Activity [6]: -0.9% | Activity [7]: inactive

CC(Cc1ccncc1)N/C(=N\C#N)NC[C@H](Cc1ccccc1)N(C)C (stereo partly specified)
Activity [1]: -1.1% | Activity [2]: 2.9% | Activity [3]: 8.6% | Time [4]: 12.52 s | Activity [5]: -0.9% | Activity [6]: -0.5% | Activity [7]: inactive

COc1ccc2cc(CC(C)N/C(=N\C#N)NC[C@H](Cc3ccccc3)N(C)C)ccc2c1 (stereo partly specified)
Activity [1]: -1% | Activity [2]: 15.2% | Activity [3]: 23.6% | Time [4]: 10.44 s | Activity [5]: -1% | Activity [6]: -1% | Activity [7]: inactive

CN(C)[C@H](CN/C(=N/C#N)NCCc1ccccc1)Cc1ccccc1
Activity [1]: -0.9% | Activity [2]: 25.9% | Activity [3]: 28% | Time [4]: 19.93 s | Activity [5]: -0.2% | Activity [6]: 2% | Activity [7]: inactive

CC(Cc1cccs1)N/C(=N\C#N)NC[C@H](Cc1ccccc1)N(C)C (stereo partly specified)
Activity [1]: -0.9% | Activity [2]: 12.4% | Activity [3]: 37.2% | Time [4]: 21.8 s | Activity [5]: -0.4% | Activity [6]: 2% | Activity [7]: inactive

CN(C)[C@H](CN/C(=N/C#N)NCCc1ccccc1)Cc1ccc(O)cc1
Activity [1]: -0.9% | Activity [2]: 8.6% | Activity [3]: 4.1% | Time [4]: 6.89 s | Activity [5]: -0.7% | Activity [6]: -0.7% | Activity [7]: inactive

CC(Cc1ccsc1)N/C(=N\C#N)NC[C@H](Cc1ccccc1)N(C)C (stereo partly specified)
Activity [1]: -1% | Activity [2]: -0.8% | Activity [3]: 9.1% | Time [4]: 22.76 s | Activity [5]: -0.6% | Activity [6]: 1.9% | Activity [7]: inactive

CC(Cc1cccnc1)N/C(=N\C#N)NC[C@H](Cc1ccccc1)N(C)C (stereo partly specified)
Activity [1]: -1.1% | Activity [2]: 9.3% | Activity [3]: 9.5% | Time [4]: 15.75 s | Activity [5]: -0.9% | Activity [6]: -0.6% | Activity [7]: inactive

CN(C)[C@H](CN/C(=N/C#N)Nc1ccccc1)Cc1ccccc1
Activity [1]: -0.5% | Activity [2]: 2.1% | Activity [3]: 23.1% | Time [4]: 20.94 s | Activity [5]: 1.9% | Activity [6]: 15.9% | Activity [7]: inactive

CC(Cc1ccc[nH]1)N/C(=N\C#N)NC[C@H](Cc1ccccc1)N(C)C (stereo partly specified)
Activity [1]: -1% | Activity [2]: 5.8% | Activity [3]: 24.3% | Time [4]: 17.58 s | Activity [5]: -0.4% | Activity [6]: 7.9% | Activity [7]: inactive

COc1ccc(CN/C(=N\C#N)NC[C@H](Cc2ccccc2)N(C)C)cc1
Activity [1]: -0.9% | Activity [2]: 2.9% | Activity [3]: 14.4% | Time [4]: 14.34 s | Activity [5]: -0.6% | Activity [6]: 0.9% | Activity [7]: inactive
